# According to ChEMBL document CHEMBL1697781, “Assessment of the health effects of chemicals in humans: II. Construction of an adverse effects database for QSAR modeling” (Curr Drug Discov Technol, 2004):
# Legend:
# Details in all cases: human; call rule not given here
# Hepatotoxicity [1] = assay: FDA HLAED, liver enzyme composite activity
# Hepatotoxicity [2] = assay: FDA HLAED, alkaline phosphatase increase
# Hepatotoxicity [3] = assay: FDA HLAED, serum glutamic oxaloacetic transaminase (SGOT) increase
# Hepatotoxicity [4] = assay: FDA HLAED, serum glutamic pyruvic transaminase (SGPT) increase
# Hepatotoxicity [5] = assay: FDA HLAED, lactate dehydrogenase (LDH) increase
# Hepatotoxicity [6] = assay: FDA HLAED, gamma-glutamyl transferase (GGT) increase
# For GGT Increase - Index Value in this document: reference of the scale not given here.
# For LDH Increase - Index Value in this document: reference of the scale not given here.
Structure (SMILES),Composite Activity - Active (Hepatotoxicity [1]),Composite Activity - Marginal (Hepatotoxicity [1]),Composite Activity - Score (Hepatotoxicity [1]),Alkaline Phosphatase Increase - Activity Score (Hepatotoxicity [2]),Alkaline Phosphatase Increase - Index Value (Hepatotoxicity [2]),Alkaline Phosphatase Increase - Number of Reports (Hepatotoxicity [2]),SGOT Increase - Activity Score (Hepatotoxicity [3]),SGOT Increase - Index Value (Hepatotoxicity [3]),SGOT Increase - Number of Reports (Hepatotoxicity [3]),SGPT Increase - Activity Score (Hepatotoxicity [4]),SGPT Increase - Index Value (Hepatotoxicity [4]),SGPT Increase - Number of Reports (Hepatotoxicity [4]),LDH Increase - Activity Score (Hepatotoxicity [5]),LDH Increase - Index Value (Hepatotoxicity [5]),LDH Increase - Number of Reports (Hepatotoxicity [5]),GGT Increase - Activity Score (Hepatotoxicity [6]),GGT Increase - Index Value (Hepatotoxicity [6]),GGT Increase - Number of Reports (Hepatotoxicity [6])
COc1cc([C@@H]2c3cc4c(cc3[C@@H](O[C@@H]3O[C@@H]5CO[C@@H](c6cccs6)O[C@H]5[C@H](O)[C@H]3O)[C@H]3COC(=O)[C@H]23)OCO4)cc(OC)c1O [TENIPOSIDE],0,0,Inactive,Inactive,0,< 4,Inactive,0,< 4,Inactive,0,< 4,Inactive,0,< 4,Inactive,0,< 4
COc1cc2nc(N3CCN(C(=O)C4CCCO4)CC3)nc(N)c2cc1OC (configuration not stated) [TERAZOSIN],0,0,Inactive,Inactive,0.5,< 4,Inactive,1.6,>= 4,Inactive,1.3,>= 4,Inactive,0.5,< 4,Inactive,0.8,< 4
CN(C/C=C/C#CC(C)(C)C)Cc1cccc2ccccc12 [TERBINAFINE],0,1,Inactive,Inactive,1.1,>= 4,Marginally Active,3.1,>= 4,Inactive,2.8,>= 4,Inactive,1.1,>= 4,Inactive,2.6,>= 4
CC(C)N1CCN(c2ccc(OCC3COC(Cn4cncn4)(c4ccc(Cl)cc4Cl)O3)cc2)CC1 (configuration not stated) [TERCONAZOLE],0,0,Inactive,Inactive,0,< 4,Inactive,0,< 4,Inactive,0,< 4,Inactive,0,< 4,Inactive,0,< 4
CC(C)(C)c1ccc(C(O)CCCN2CCC(C(O)(c3ccccc3)c3ccccc3)CC2)cc1 (configuration not stated) [TERFENADINE],0,0,Inactive,Inactive,0.6,>= 4,Inactive,0.7,>= 4,Inactive,0.7,>= 4,Inactive,0.2,< 4,Inactive,0.1,< 4
C[C@]12CC[C@H]3[C@@H](CCC4=CC(=O)CC[C@@]43C)[C@@H]1CC[C@@H]2OC(=O)CCC1CCCC1 [TESTOSTERONE CYPIONATE],0,0,Inactive,Inactive,0,< 4,Inactive,4.8,< 4,Inactive,7.2,< 4,Inactive,2.4,< 4,Inactive,4.8,< 4
CCCCCCC(=O)O[C@H]1CC[C@H]2[C@@H]3CCC4=CC(=O)CC[C@]4(C)[C@H]3CC[C@]12C [TESTOSTERONE ENANTHATE],0,0,Inactive,Inactive,0,< 4,Inactive,4.8,< 4,Inactive,7.2,< 4,Inactive,2.4,< 4,Inactive,4.8,< 4
CCCCCCCCCC(=O)CC(=O)O[C@H]1CC[C@H]2[C@@H]3CCC4=CC(=O)CC[C@]4(C)[C@H]3CC[C@]12C [TESTOSTERONE KETOLAURATE],0,0,Inactive,Inactive,0,< 4,Inactive,4.8,< 4,Inactive,7.2,< 4,Inactive,2.4,< 4,Inactive,4.8,< 4
C[C@]12CC[C@H]3[C@@H](CCC4=CC(=O)CC[C@@]43C)[C@@H]1CC[C@@H]2OC(=O)Cc1ccccc1 [TESTOSTERONE PHENYLACETATE],0,0,Inactive,Inactive,0,< 4,Inactive,4.8,< 4,Inactive,7.2,< 4,Inactive,2.4,< 4,Inactive,4.8,< 4
